According to patent US20230233569A1 (Revolution Medicines, Inc., priority 2020, published 2023):
Read-outs that look alike come from different tables or passages of the source.

What was measured:
NRAS Q61R = NRAS Q61R (Homo sapiens, UniProt P01111+P62937, Q61R); assay: Disruption of BRAF RBD interaction with Ras (FRET / MOA assay, with Cyclophilin A); assay type: biochemical
How it was run: (§1)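 TR-FRET in 25 mM HEPES pH 7.3, 100 mM NaCl, 5 mM MgCl2, 0.1% BSA: 25 μM Cyclophilin A, 12.5 nM His6-Ras-GMPPNP, 50 nM GST-BRAF RBD with compound (10-point 3-fold series from 30 μM), 3 h at 25° C. Anti-His Eu/anti-GST APC added, 1.5 h more; IC50 from decreased FRET ratio versus DMSO.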

KRAS Q61H = KRAS Q61H (Homo sapiens, UniProt P01116+P62937, Q61H); assay: as above; assay type: biochemical
How it was run: as §1

NRAS Q61K = NRAS Q61K (Homo sapiens, UniProt P01111+P62937, Q61K); assay: as above; assay type: biochemical
How it was run: as §1

NRAS WT = NRAS WT (Homo sapiens, UniProt P01111+P62937); assay: as above; assay type: biochemical
How it was run: as §1

NCI-H358 (K-Ras G12C) = assay: CellTiter-Glo cell viability assay, 5-day treatment; assay type: cell-based; conditions: Homo sapiens, NCI-H358, 120 h, 5-day treatment; read-out: H358 Cell Viability assay data (K-Ras G12C, IC50)
How it was run: (§2)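 Luminescence read-out after 5 days of compound exposure, with plates first brought to room temperature for roughly 30 minutes. Values are percent of averaged DMSO wells, fitted by four-parameter logistic regression.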

Capan-1 (K-Ras G12V) = assay: as above; assay type: cell-based; conditions: Homo sapiens, CAPAN-1, 120 h, 5-day treatment; read-out: Capan-1 Cell Viability assay data (K-Ras G12V, IC50)
How it was run: as §2

KRAS G13C = KRAS G13C (Homo sapiens, UniProt P01116+P62937, G13C); assay: Disruption of BRAF RBD interaction with Ras (FRET / MOA assay, with Cyclophilin A); assay type: biochemical
How it was run: (§3)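 Biochemical TR-FRET disruption assay: nucleotide-loaded K-Ras with Cyclophilin A and a BRAF RBD construct, compound titrated over 10 points from 30 μM (final).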

KRAS G12V = KRAS G12V (Homo sapiens, UniProt P01116+P62937, G12V); assay: as above; assay type: biochemical
How it was run: as §3

NRAS G12C = NRAS G12C (Homo sapiens, UniProt P01111+P62937, G12C); assay: as above; assay type: biochemical
KRAS WT = KRAS WT (Homo sapiens, UniProt P01116+P62937); assay: as above; assay type: biochemical
How it was run: as §3

KRAS G12D = KRAS G12D (Homo sapiens, UniProt P01116+P62937, G12D); assay: as above; assay type: biochemical
How it was run: as §3

KRAS G12C = KRAS G12C (Homo sapiens, UniProt P01116+P62937, G12C); assay: as above; assay type: biochemical
How it was run: as §3

KRAS G12S = KRAS G12S (Homo sapiens, UniProt P01116+P62937, G12S); assay: as above; assay type: biochemical
How it was run: as §3

KRAS G13D = KRAS G13D (Homo sapiens, UniProt P01116+P62937, G13D); assay: as above; assay type: biochemical
How it was run: as §3

[1] = NRAS Q61R, read-out: NRAS Q61R FRET data IC50
[2] = KRAS Q61H, read-out: KRAS Q61H FRET data IC50
[3] = NRAS Q61K, read-out: NRAS Q61K FRET data IC50
[4] = NRAS WT, read-out: NRAS WT FRET data IC50
[5] = read-out: KRAS G13C FRET data, IC50
[6] = KRAS G12V, read-out: KRAS G12V FRET data IC50
[7] = NRAS G12C, read-out: NRAS G12C FRET data IC50
[8] = KRAS WT, read-out: KRAS WT FRET data IC50
[9] = read-out: KRAS G12D FRET data, IC50
[10] = read-out: KRAS G12C FRET data, IC50
[11] = read-out: KRAS G12S FRET data, IC50
[12] = KRAS G13D, read-out: KRAS G13D FRET data IC50

NRAS Q61R, sequence (P01111 whole entry Q61R): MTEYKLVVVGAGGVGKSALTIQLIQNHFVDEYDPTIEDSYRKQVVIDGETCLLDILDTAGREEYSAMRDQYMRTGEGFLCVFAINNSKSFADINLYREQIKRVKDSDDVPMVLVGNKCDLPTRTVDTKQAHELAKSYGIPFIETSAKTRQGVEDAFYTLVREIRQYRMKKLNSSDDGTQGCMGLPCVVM
NRAS Q61R, sequence (P62937 whole entry): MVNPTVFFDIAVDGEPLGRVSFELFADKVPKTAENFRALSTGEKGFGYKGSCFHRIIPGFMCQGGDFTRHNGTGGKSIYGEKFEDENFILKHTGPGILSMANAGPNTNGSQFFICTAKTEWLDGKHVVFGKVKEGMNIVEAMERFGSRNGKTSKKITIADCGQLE
KRAS WT, sequence (P01116 1-169 isoform P01116-2 limits assumed): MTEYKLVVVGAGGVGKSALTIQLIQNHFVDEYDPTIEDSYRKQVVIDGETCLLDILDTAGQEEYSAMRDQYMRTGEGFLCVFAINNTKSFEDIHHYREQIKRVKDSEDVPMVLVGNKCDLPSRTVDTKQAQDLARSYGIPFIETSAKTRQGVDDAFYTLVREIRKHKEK
KRAS WT, sequence (P62937 whole entry): as the sequence (P62937 whole entry) above
KRAS G12D, sequence (P01116 1-169 isoform P01116-2 G12D limits assumed): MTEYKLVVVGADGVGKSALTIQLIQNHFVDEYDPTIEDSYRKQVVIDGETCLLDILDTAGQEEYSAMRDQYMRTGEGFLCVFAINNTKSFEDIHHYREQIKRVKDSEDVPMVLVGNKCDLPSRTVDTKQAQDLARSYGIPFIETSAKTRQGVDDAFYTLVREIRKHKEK
KRAS G12D, sequence (P62937 whole entry): as the sequence (P62937 whole entry) above
KRAS G13C, sequence (P01116 1-169 isoform P01116-2 G13C): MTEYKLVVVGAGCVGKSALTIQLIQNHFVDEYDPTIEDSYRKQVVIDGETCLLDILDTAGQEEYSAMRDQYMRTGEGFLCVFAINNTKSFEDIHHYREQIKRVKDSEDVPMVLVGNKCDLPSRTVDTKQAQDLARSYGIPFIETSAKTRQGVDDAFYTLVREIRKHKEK
KRAS G13C, sequence (P62937 whole entry): as the sequence (P62937 whole entry) above
KRAS G12V, sequence (P01116 1-169 isoform P01116-2 G12V limits assumed): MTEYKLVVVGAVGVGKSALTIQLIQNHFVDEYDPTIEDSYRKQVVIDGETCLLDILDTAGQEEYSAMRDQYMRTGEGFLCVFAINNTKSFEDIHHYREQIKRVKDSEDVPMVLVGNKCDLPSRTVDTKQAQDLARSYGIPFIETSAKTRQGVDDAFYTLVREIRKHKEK
KRAS G12V, sequence (P62937 whole entry): as the sequence (P62937 whole entry) above
NRAS Q61K, sequence (P01111 whole entry Q61K): as the sequence (P01111 whole entry Q61R) above, with R61K counted along it
NRAS Q61K, sequence (P62937 whole entry): as the sequence (P62937 whole entry) above
KRAS G12C, sequence (P01116 1-169 isoform P01116-2 G12C): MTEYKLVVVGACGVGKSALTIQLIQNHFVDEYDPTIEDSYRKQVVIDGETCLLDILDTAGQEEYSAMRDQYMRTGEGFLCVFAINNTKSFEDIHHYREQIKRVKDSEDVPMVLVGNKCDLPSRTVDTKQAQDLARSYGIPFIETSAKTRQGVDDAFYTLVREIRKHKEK
KRAS G12C, sequence (P62937 whole entry): as the sequence (P62937 whole entry) above
NRAS WT, sequence (P01111 whole entry): as the sequence (P01111 whole entry Q61R) above, with R61Q counted along it
NRAS WT, sequence (P62937 whole entry): as the sequence (P62937 whole entry) above
KRAS G13D, sequence (P01116 1-169 isoform P01116-2 G13D limits assumed): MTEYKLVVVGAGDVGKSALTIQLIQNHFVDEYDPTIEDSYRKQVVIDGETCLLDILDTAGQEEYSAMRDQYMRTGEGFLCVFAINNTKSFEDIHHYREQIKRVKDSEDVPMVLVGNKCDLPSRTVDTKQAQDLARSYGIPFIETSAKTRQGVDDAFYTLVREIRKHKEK
KRAS G13D, sequence (P62937 whole entry): as the sequence (P62937 whole entry) above
KRAS Q61H, sequence (P01116 1-169 isoform P01116-2 Q61H limits assumed): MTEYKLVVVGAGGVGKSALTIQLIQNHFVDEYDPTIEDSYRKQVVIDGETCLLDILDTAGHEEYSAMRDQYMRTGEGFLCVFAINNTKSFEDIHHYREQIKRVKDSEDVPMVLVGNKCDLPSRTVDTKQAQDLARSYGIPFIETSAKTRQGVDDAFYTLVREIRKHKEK
KRAS Q61H, sequence (P62937 whole entry): as the sequence (P62937 whole entry) above
KRAS G12S, sequence (P01116 1-169 isoform P01116-2 G12S limits assumed): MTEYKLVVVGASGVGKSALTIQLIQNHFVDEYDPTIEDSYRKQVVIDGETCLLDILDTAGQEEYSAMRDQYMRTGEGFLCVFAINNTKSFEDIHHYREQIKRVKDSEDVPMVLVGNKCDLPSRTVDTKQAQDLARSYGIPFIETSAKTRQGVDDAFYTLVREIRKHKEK
KRAS G12S, sequence (P62937 whole entry): as the sequence (P62937 whole entry) above
NRAS G12C, sequence (P01111 whole entry G12C): as the sequence (P01111 whole entry Q61R) above, with G12C, R61Q counted along it
NRAS G12C, sequence (P62937 whole entry): as the sequence (P62937 whole entry) above

Structure (SMILES) | IC50 (NRAS Q61R; [1]) | IC50 (KRAS Q61H; [2]) | IC50 (NRAS Q61K; [3]) | IC50 (NRAS WT; [4]) | IC50 (NCI-H358 (K-Ras G12C)) | IC50 (Capan-1 (K-Ras G12V)) | IC50 (KRAS G13C; [5]) | IC50 (KRAS G12V; [6]) | IC50 (NRAS G12C; [7]) | IC50 (KRAS WT; [8]) | IC50 (KRAS G12D; [9]) | IC50 (KRAS G12C; [10]) | IC50 (KRAS G12S; [11]) | IC50 (KRAS G13D; [12]) | other results
CCn1c(-c2cccnc2[C@H](C)OC)c2c3cc(ccc31)-c1csc(n1)C[C@H](NC(=O)[C@H](C(C)C)N(C)C(=O)N1CC(n3nc(C)cc3C)C1)C(=O)N1CCC[C@H](N1)C(=O)OCC(C)(C)C2 [Example A297] | 100 to 1000 nM | 100 to 1000 nM | 100 to 1000 nM | 100 to 1000 nM | 10 to 100 nM | 100 to 1000 nM | 100 to 1000 nM | 100 to 1000 nM | 100 to 1000 nM | 100 to 1000 nM | 1000 to 10000 nM | 100 to 1000 nM | 100 to 1000 nM | 1000 to 10000 nM | –
CCn1c(-c2cc(N3CCN(C)CC3)cnc2[C@H](C)OC)c2c3cc(ccc31)-c1cc(O)cc(c1)C[C@H](NC(=O)[C@H](C1CCCC1)N(C)C(=O)[C@H]1OCC[C@H]1c1ccccc1)C(=O)N1CCC[C@H](N1)C(=O)OCC(C)(C)C2 [Example A423] | 100 to 1000 nM | 100 to 1000 nM | 1000 to 10000 nM | 100 to 1000 nM | 100 to 1000 nM | 100 to 1000 nM | 100 to 1000 nM | 10 to 100 nM | 100 to 1000 nM | 100 to 1000 nM | 100 to 1000 nM | 100 to 1000 nM | 100 to 1000 nM | 100 to 1000 nM | –
CCn1c(-c2cccnc2[C@H](C)OC)c2c3cc(ccc31)-c1csc(n1)C[C@H](NC(=O)[C@H](C(C)C)N(C)C(=O)N1CC(OC(F)F)C1)C(=O)N1CCC[C@H](N1)C(=O)OCC(C)(C)C2 (atropisomer, axis not shown) [Example A302] | 100 to 1000 nM | 10 to 100 nM | 10 to 100 nM | 100 to 1000 nM | < 10 nM | 10 to 100 nM | 100 to 1000 nM | 100 to 1000 nM | 10 to 100 nM | 100 to 1000 nM | 100 to 1000 nM | 10 to 100 nM | 100 to 1000 nM | 100 to 1000 nM | –
CCn1c(-c2cccnc2[C@H](C)OC)c2c3cc(ccc31)-c1csc(n1)C[C@H](NC(=O)[C@H](C(C)C)N1CCN(C)C1=O)C(=O)N1CCC[C@H](N1)C(=O)OCC(C)(C)C2 [Example A389] | 1000 to 10000 nM | 100 to 1000 nM | 100 to 1000 nM | 1000 to 10000 nM | 10 to 100 nM | 10 to 100 nM | 1000 to 10000 nM | 1000 to 10000 nM | 100 to 1000 nM | 1000 to 10000 nM | 1000 to 10000 nM | 100 to 1000 nM | 1000 to 10000 nM | 1000 to 10000 nM | –
CCn1c(-c2cccnc2[C@H](C)OC)c2c3cc(ccc31)-c1csc(n1)C[C@H](NC(=O)[C@H](C(C)C)N(C)C(=O)N1[C@H](C)CN(C)C[C@H]1C)C(=O)N1CCC[C@H](N1)C(=O)OCC(C)(C)C2 [Example A610] | 100 to 1000 nM | 10 to 100 nM | 100 to 1000 nM | 100 to 1000 nM | 100 to 1000 nM | 100 to 1000 nM | 100 to 1000 nM | 100 to 1000 nM | 100 to 1000 nM | 100 to 1000 nM | 100 to 1000 nM | 100 to 1000 nM | 100 to 1000 nM | 100 to 1000 nM | –
CCn1c(-c2cccnc2[C@H](C)OC)c2c3cc(ccc31)-c1csc(n1)C[C@H](NC(=O)[C@H](C(C)C)N(C)C(=O)N1CC3(CC(O)C3)C1)C(=O)N1CCC[C@H](N1)C(=O)OCC(C)(C)C2 (atropisomer, axis not shown) [Example A510] | 100 to 1000 nM | 10 to 100 nM | 10 to 100 nM | 100 to 1000 nM | 10 to 100 nM | 10 to 100 nM | 100 to 1000 nM | 100 to 1000 nM | 10 to 100 nM | 100 to 1000 nM | 1000 to 10000 nM | 10 to 100 nM | 100 to 1000 nM | 100 to 1000 nM | –
CCn1c(-c2cnccc2COC)c2c3cc(ccc31)-c1cc(O)cc(c1)C[C@H](NC(=O)[C@H](C(C)C)N(C)C(=O)[C@H]1CCN(S(C)(=O)=O)C1)C(=O)N1CCC[C@H](N1)C(=O)OCC(C)(C)C2 [Example A24, (2S)—N-[(8S,14S)-22-ethyl-4-hydroxy-21-[4-(methoxymethyl)pyridin-3-yl]-18,18-dimethyl-9,15-dioxo-16-oxa-10,22,28-triazapentacyclo[18.5.2.1^2,6.1^10,14.0^23,27]nonacosa-1(26),2,4,6(29),20,23(27),24-heptaen-8-yl]-2-{1-[(3S)-1-methanesulfonylpyrrolidin-3-yl]-N-methylformamido}-3-methylbutanamide] | – | – | – | – | 1000 to 10000 nM | 1000 to 10000 nM | – | – | – | – | – | – | – | – | IC50 (NRAS Q61R; NRAS Q61R FRET data IC50, NRAS Q61R): 100 to 1000 nM; IC50 (KRAS Q61H; KRAS Q61H FRET data IC50, KRAS Q61H): 10 to 100 nM; IC50 (NRAS Q61K; NRAS Q61K FRET data IC50, NRAS Q61K): 100 to 1000 nM; IC50 (NRAS WT; NRAS WT FRET data IC50, NRAS WT): 100 to 1000 nM; IC50 (KRAS G13C; KRAS G13C FRET data, IC50): 100 to 1000 nM; IC50 (KRAS G12V; KRAS G12V FRET data IC50, KRAS G12V): 100 to 1000 nM; IC50 (NRAS G12C; NRAS G12C FRET data IC50, NRAS G12C): 100 to 1000 nM; IC50 (KRAS WT; KRAS WT FRET data IC50, KRAS WT): 100 to 1000 nM; IC50 (KRAS G12D; KRAS G12D FRET data, IC50): 1000 to 10000 nM; IC50 (KRAS G12C; KRAS G12C FRET data, IC50): 100 to 1000 nM; IC50 (KRAS G12S; KRAS G12S FRET data, IC50): 100 to 1000 nM; IC50 (KRAS G13D; KRAS G13D FRET data IC50, KRAS G13D): 100 to 1000 nM
CCn1c(-c2cccnc2[C@H](C)OC)c2c3cc(ccc31)-c1csc(n1)C[C@H](NC(=O)[C@H](C(C)C)N(C)C(=O)N1CCN(C)CC1)C(=O)N1CCC[C@H](N1)C(=O)OCC(C)(C)C2 [Example A570] | 100 to 1000 nM | 100 to 1000 nM | 100 to 1000 nM | 100 to 1000 nM | 10 to 100 nM | 10 to 100 nM | 100 to 1000 nM | 100 to 1000 nM | 100 to 1000 nM | 100 to 1000 nM | 1000 to 10000 nM | 100 to 1000 nM | 100 to 1000 nM | 100 to 1000 nM | –
